From patent US20080292736A1, “Bioavailability enhancing activity of carum carvi extracts and fractions thereof” (COUNCIL OF SCIENTIFIC AND INDUSTRIAL RESEARCH, priority 2001, published 2008)
Read-outs that look alike come from different tables or passages of the source.

Assays:
[1] = rat, in vivo; for % Enhancement in bioavailability, Carum carvi (Cc) Extr.: 30 mg/kg; for % Enhancement in bioavailability, BE from Zingiber officinale: 35 mg/kg
Procedure: (§1) Bioenhancers of Zingiber officinale, mean 50% alcoholic extract of fresh ginger. The doses remain unchanged whether the bioenhancers are used alone or in combination.
(§2) The amount of bioenhancers used are given below: • i. from Carum carvi: extract 30 mg/kg body weight (rats); Fraction No. 1: 15 mg/kg body weight (rats) • ii. piperine 8 mg/kg body weight (rats) • iii. Zingiber officinale: 35 mg/kg body weight (rats) • The drug used was rifampicin (40 mg/kg). The drug alone or in combination with the bioenhancers was administered to rats as given below: • Group 1: control • Group 2: Rifampicin alone • Group 3: bioenhancer alone • Group 4: Rifampicin with Carum carvi bioenhancer
(§3) Blood from the control/treated animals at predetermined intervals (0-24 hours) (total 14 timings). Rifampicin was extracted from the blood (plasma) using dichloromethane. […] The mobile phase was phosphate buffer:acetonitrile in a ratio of 40:60, and a flow rate of 1.0 ml/min.

[2] = Enhancement of bioavailability of drugs given to rats with bioenhancers (plasma drug level by HPLC); settings: for % Enhancement in bioavailability, BE from Zingiber officinale: drug with Zingiber officinale 50% alcoholic extract of fresh ginger 35 mg/kg; for % Enhancement in bioavailability, Piperine as BE: drug with piperine 8 mg/kg; for % Enhancement in bioavailability, Carum carvi (Cc) Frac 1.: nutraceutical with Carum carvi Fraction No. 1 15 mg/kg; for % Enhancement in bioavailability, Carum carvi + Zingiber officinale, Frac 1. (Cc): nutraceutical with Carum carvi Fraction No. 1 and Zingiber officinale; for % Enhancement in bioavailability, Carum carvi + piperine, Frac 1. (Cc): nutraceutical with Carum carvi Fraction No. 1 and piperine; for % Enhancement in bioavailability, Carum carvi (Cc) Extr.: nutraceutical with Carum carvi extract 30 mg/kg; for % Enhancement in bioavailability, Carum carvi + Zingiber officinale, Extr. (Cc): nutraceutical with Carum carvi extract and Zingiber officinale; for % Enhancement in bioavailability, Carum carvi + piperine, Extr. (Cc): nutraceutical with Carum carvi extract and piperine
Procedure: as §1, §2, §3

CC[C@H](C)[C@H](N)C(=O)O [Isoleucine]
% Enhancement in bioavailability, Carum carvi + Zingiber officinale, Extr. (Cc) [1]: 42%
% Enhancement in bioavailability, Carum carvi + Zingiber officinale, Frac 1. (Cc) [1]: 50%
% Enhancement in bioavailability, Carum carvi + piperine, Extr. (Cc) [1]: 37%
% Enhancement in bioavailability, Carum carvi + piperine, Frac 1. (Cc) [1]: 44%
% Enhancement in bioavailability, Carum carvi (Cc) Extr. [1]: 28%
% Enhancement in bioavailability, BE from Zingiber officinale [1]: 15%

CC(C)C[C@H](N)C(=O)O [Leucine]
% Enhancement in bioavailability, Carum carvi + Zingiber officinale, Extr. (Cc) [1]: 35%
% Enhancement in bioavailability, Carum carvi + Zingiber officinale, Frac 1. (Cc) [1]: 40%
% Enhancement in bioavailability, Carum carvi + piperine, Extr. (Cc) [1]: 29%
% Enhancement in bioavailability, Carum carvi + piperine, Frac 1. (Cc) [1]: 32%
% Enhancement in bioavailability, Carum carvi (Cc) Extr. [1]: 19%
% Enhancement in bioavailability, BE from Zingiber officinale [1]: 24%

NCCCC[C@H](N)C(=O)O [Lysine]
% Enhancement in bioavailability, Carum carvi + Zingiber officinale, Extr. (Cc) [1]: 39%
% Enhancement in bioavailability, Carum carvi + Zingiber officinale, Frac 1. (Cc) [1]: 43%
% Enhancement in bioavailability, Carum carvi + piperine, Extr. (Cc) [1]: 33%
% Enhancement in bioavailability, Carum carvi + piperine, Frac 1. (Cc) [1]: 38%
% Enhancement in bioavailability, Carum carvi (Cc) Extr. [1]: 26%
% Enhancement in bioavailability, BE from Zingiber officinale [1]: 19%

CCn1cc(C(=O)O)c(=O)c2cc(F)c(N3CCNCC3)cc21 [Norfloxacin]
% Enhancement in bioavailability, BE from Carum carvi [1]: 55%
% Enhancement in bioavailability, Carum carvi + Piperine [1]: 65%
% Enhancement in bioavailability, Carum carvi + Zingiber officinale [1]: 60%
% Enhancement in bioavailability, BE from Zingiber officinale [1]: Nil

COc1ccc2[nH]c([S+]([O-])Cc3ncc(C)c(OC)c3C)nc2c1 (stereo not drawn) [Omeprazole]
% Enhancement in bioavailability, BE from Carum carvi [1]: 76%
% Enhancement in bioavailability, Carum carvi + Piperine [1]: 70%
% Enhancement in bioavailability, Carum carvi + Zingiber officinale [1]: 75%
% Enhancement in bioavailability, BE from Zingiber officinale [1]: nil

CN1C(C(=O)Nc2ccccn2)=C(O)c2ccccc2S1(=O)=O [Piroxicam]
% Enhancement in bioavailability, BE from Carum carvi [1]: Nil
% Enhancement in bioavailability, Carum carvi + Piperine [1]: 98%
% Enhancement in bioavailability, Carum carvi + Zingiber officinale [1]: 76%
% Enhancement in bioavailability, BE from Zingiber officinale [1]: 86%

CNC(=C[N+](=O)[O-])NCCSCc1ccc(CN(C)C)o1 [Ranitidine]
% Enhancement in bioavailability, BE from Carum carvi [1]: 67%
% Enhancement in bioavailability, Carum carvi + Piperine [1]: 70%
% Enhancement in bioavailability, Carum carvi + Zingiber officinale [1]: 150%
% Enhancement in bioavailability, BE from Zingiber officinale [1]: 147%

CC[C@H]1OC(=O)[C@H](C)[C@@H](O[C@H]2C[C@@](C)(OC)[C@@H](O)[C@H](C)O2)[C@H](C)[C@@H](O[C@@H]2O[C@H](C)C[C@H](N(C)C)[C@H]2O)[C@](C)(O)C[C@@H](C)/C(=N\OCOCCOC)[C@H](C)[C@@H](O)[C@]1(C)O [Roxythromycin]
% Enhancement in bioavailability, BE from Carum carvi [1]: 65%
% Enhancement in bioavailability, Carum carvi + Piperine [1]: 95%
% Enhancement in bioavailability, Carum carvi + Zingiber officinale [1]: 98%
% Enhancement in bioavailability, BE from Zingiber officinale [1]: 72%

Cc1ncc(CO)c(CO)c1O [Vit B 6]
% Enhancement in bioavailability, BE from Zingiber officinale ([2]; drug dose as in row): Nil
% Enhancement in bioavailability, Piperine as BE ([2]; drug dose as in row): Nil
% Enhancement in bioavailability, Carum carvi (Cc) Frac 1. [2]: Nil
% Enhancement in bioavailability, Carum carvi + Zingiber officinale, Frac 1. (Cc) [2]: Nil
% Enhancement in bioavailability, Carum carvi + piperine, Frac 1. (Cc) [2]: Nil
% Enhancement in bioavailability, Carum carvi (Cc) Extr. [2]: nil
% Enhancement in bioavailability, Carum carvi + Zingiber officinale, Extr. (Cc) [2]: Nil
% Enhancement in bioavailability, Carum carvi + piperine, Extr. (Cc) [2]: Nil

Cc1cn([C@H]2C[C@H](N=[N+]=[N-])[C@@H](CO)O2)c(=O)[nH]c1=O [Zidovudine]
% Enhancement in bioavailability, BE from Carum carvi ([2]; drug with Carum carvi bioenhancer (aqueous or 50% alcoholic extract 30 mg/kg or Fraction No. 1 15 mg/kg), drug dose mg/kg): 92%
% Enhancement in bioavailability, Carum carvi + Zingiber officinale ([2]; drug with Carum carvi bioenhancer and Zingiber officinale 35 mg/kg, drug dose as in row): 87%
% Enhancement in bioavailability, Carum carvi + Piperine ([2]; drug with Carum carvi bioenhancer and piperine 8 mg/kg, drug dose as in row): 95%
% Enhancement in bioavailability, BE from Zingiber officinale ([2]; drug dose as in row): 105%
% Enhancement in bioavailability, Piperine as BE ([2]; drug dose as in row): 140%

[Zn] [Zinc]
% Enhancement in bioavailability, BE from Zingiber officinale ([2]; drug dose as in row): nil
% Enhancement in bioavailability, Piperine as BE ([2]; drug dose as in row): nil
% Enhancement in bioavailability, Carum carvi (Cc) Frac 1. [2]: Nil
% Enhancement in bioavailability, Carum carvi + Zingiber officinale, Frac 1. (Cc) [2]: Nil
% Enhancement in bioavailability, Carum carvi + piperine, Frac 1. (Cc) [2]: Nil
% Enhancement in bioavailability, Carum carvi (Cc) Extr. [2]: nil
% Enhancement in bioavailability, Carum carvi + Zingiber officinale, Extr. (Cc) [2]: Nil
% Enhancement in bioavailability, Carum carvi + piperine, Extr. (Cc) [2]: nil

Vit B 12
% Enhancement in bioavailability, BE from Zingiber officinale ([2]; drug dose as in row): Nil
% Enhancement in bioavailability, Piperine as BE ([2]; drug dose as in row): Nil
% Enhancement in bioavailability, Carum carvi (Cc) Frac 1. [2]: nil
% Enhancement in bioavailability, Carum carvi + Zingiber officinale, Frac 1. (Cc) [2]: Nil
% Enhancement in bioavailability, Carum carvi + piperine, Frac 1. (Cc) [2]: Nil
% Enhancement in bioavailability, Carum carvi (Cc) Extr. [2]: Nil
% Enhancement in bioavailability, Carum carvi + Zingiber officinale, Extr. (Cc) [2]: Nil
% Enhancement in bioavailability, Carum carvi + piperine, Extr. (Cc) [2]: Nil

Vit E
% Enhancement in bioavailability, BE from Zingiber officinale ([2]; drug dose as in row): Nil
% Enhancement in bioavailability, Piperine as BE ([2]; drug dose as in row): Nil
% Enhancement in bioavailability, Carum carvi (Cc) Frac 1. [2]: Nil
% Enhancement in bioavailability, Carum carvi + Zingiber officinale, Frac 1. (Cc) [2]: Nil
% Enhancement in bioavailability, Carum carvi + piperine, Frac 1. (Cc) [2]: Nil
% Enhancement in bioavailability, Carum carvi (Cc) Extr. [2]: Nil
% Enhancement in bioavailability, Carum carvi + Zingiber officinale, Extr. (Cc) [2]: Nil
% Enhancement in bioavailability, Carum carvi + piperine, Extr. (Cc) [2]: Nil
